Source: PMC10184128 (Journal of Medicinal Chemistry, 2023)

What was measured:
human Nurr1 = human Nurr1 (Homo sapiens, UniProt P43354); details: for EC50(Nurr1): Gal4 hybrid reporter gene assay, mean ± S.E.M., n ≥ 3, inactive = at 10 μM; for activation of Gal4-Nurr1 (hybrid assay): all compounds tested at 10 μM, n = 3
[1] = target: full-length human Nurr1 (NBRE) (Homo sapiens, UniProt P43354); details: all compounds tested at 10 μM, n = 3
NOR1 (NR4A3) = target: T1, NOR1 (NR4A3) (Homo sapiens, UniProt Q92570); experiment: cell-based
T1 sequence (Q92570 394-623 limits assumed): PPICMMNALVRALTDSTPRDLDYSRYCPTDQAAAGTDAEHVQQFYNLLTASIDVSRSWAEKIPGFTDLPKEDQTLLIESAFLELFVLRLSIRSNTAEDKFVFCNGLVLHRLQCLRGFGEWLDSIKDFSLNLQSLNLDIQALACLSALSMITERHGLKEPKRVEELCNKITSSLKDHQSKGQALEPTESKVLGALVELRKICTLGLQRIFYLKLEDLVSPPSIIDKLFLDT

Sequence of human Nurr1 (P43354 360-595 limits assumed): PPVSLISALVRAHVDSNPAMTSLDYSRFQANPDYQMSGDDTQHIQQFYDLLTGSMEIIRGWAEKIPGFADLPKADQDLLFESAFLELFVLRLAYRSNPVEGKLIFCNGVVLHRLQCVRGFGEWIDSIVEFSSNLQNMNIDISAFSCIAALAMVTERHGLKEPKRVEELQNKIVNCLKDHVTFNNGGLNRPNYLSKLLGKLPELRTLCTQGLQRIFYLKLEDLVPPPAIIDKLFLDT
Sequence of full-length human Nurr1 (NBRE) (P43354 whole entry): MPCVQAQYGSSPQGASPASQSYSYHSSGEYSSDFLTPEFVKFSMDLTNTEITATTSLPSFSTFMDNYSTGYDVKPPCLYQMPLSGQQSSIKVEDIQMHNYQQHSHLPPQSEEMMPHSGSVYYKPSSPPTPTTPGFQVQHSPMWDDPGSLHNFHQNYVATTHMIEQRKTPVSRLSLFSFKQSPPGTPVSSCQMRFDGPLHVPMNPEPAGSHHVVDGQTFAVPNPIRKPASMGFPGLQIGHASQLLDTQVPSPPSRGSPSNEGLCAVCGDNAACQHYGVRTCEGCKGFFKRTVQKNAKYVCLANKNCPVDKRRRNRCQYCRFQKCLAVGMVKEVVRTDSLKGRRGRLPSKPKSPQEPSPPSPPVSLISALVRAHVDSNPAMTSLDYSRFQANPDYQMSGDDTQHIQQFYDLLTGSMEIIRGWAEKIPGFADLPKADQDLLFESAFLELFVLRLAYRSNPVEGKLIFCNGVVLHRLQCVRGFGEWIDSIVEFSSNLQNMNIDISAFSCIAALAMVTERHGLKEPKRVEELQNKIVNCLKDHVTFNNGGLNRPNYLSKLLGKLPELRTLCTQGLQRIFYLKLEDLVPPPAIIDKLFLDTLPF

EC50(Nurr1) (human Nurr1)	EC50 (NOR1 (NR4A3))	SMILES	activation of full-length Nurr1 (NBRE) [1]	activation of Gal4-Nurr1 (hybrid assay) (human Nurr1)
inactive (10 μM)	–	[2H]C([2H])([2H])Oc1cccc(-c2ccc(N(C)C(=O)C3=C(C(=O)O)CCC3)c(F)c2)c1 [compound 9]	–	–
–	–	O=C(Nc1c(F)c(F)c(-c2ccccc2)c(F)c1F)c1c(=O)[nH]n2ccccc12 [MEDS433]	No other tested DHODH inhibitor caused activation	No other tested DHODH inhibitor caused activation
–	1300 ± 300 nM	C#CCOc1cccc(-c2ccc(NC(=O)C3=C(C(=O)O)CCC3)c(F)c2)c1 [compound 29, 2-[(3-Fluoro-3′-prop-2-yn-1-yloxy[1,1′-biphenyl]-4-yl)carbamoyl]cyclopent-1-ene-1-carboxylic acid]	–	–
–	–	Cc1ccccc1-c1ccc(-c2cc(C(=O)O)c3c(c2)nnn3C)cc1 [AG-636]	No other tested DHODH inhibitor caused activation	No other tested DHODH inhibitor caused activation
inactive (10 μM)	–	[2H]C([2H])([2H])Oc1cccc(C23CCC(NC(=O)C4=C(C(=O)O)CCC4)(CC2)CC3)c1 [compound 8]	–	–
–	–	COc1cccc(-c2cc(F)c(Nc3ncccc3C(=O)O)c(F)c2)c1 [farudodstat]	No other tested DHODH inhibitor caused activation	No other tested DHODH inhibitor caused activation
